{
  "source": "paper PMC10342134",
  "about": "“Isolation and Characterization of Poeciguamerin, a Peptide with Dual Analgesic and Anti-Thrombotic Activity from the Poecilobdella manillensis Leech” (International Journal of Molecular Sciences, 2023)",
  "key": {"[1]": {"target": "T1, elastase (Homo sapiens, UniProt P08246)", "T1 construct": "purchased Sigma-Aldrich E8140", "T1 sequence (P08246 30-267)": "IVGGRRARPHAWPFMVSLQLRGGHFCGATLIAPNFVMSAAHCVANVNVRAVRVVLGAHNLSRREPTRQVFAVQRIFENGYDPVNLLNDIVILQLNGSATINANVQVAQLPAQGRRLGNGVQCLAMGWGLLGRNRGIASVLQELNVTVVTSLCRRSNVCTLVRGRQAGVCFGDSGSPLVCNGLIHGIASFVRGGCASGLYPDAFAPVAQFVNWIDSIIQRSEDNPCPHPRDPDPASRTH", "assay": "Effect on elastase activity (chromogenic substrate assay; Dixon plot Ki)", "assay_type": "biochemical", "source_text": "(§1) Thus, we examined the effects of poeciguamerin on proteases such as FXIIa, kallikrein, trypsin, thrombin, FXa, and elastase using appropriate chromogenic substrates.\n(§2) Figure 3 Effects of poeciguamerin on elastase and coagulation. Effects of natural poeciguamerin on elastase (A), FXIIa (B), kallikrein (C), FXa (D), trypsin (E), and thrombin (F) enzymatic activities.\n(§3) We mixed poeciguamerin with specific chromogenic substrates and proteases to evaluate the effect of poeciguamerin on various enzymatic activities. […] The proteases and different concentrations of natural poeciguamerin (0, 0.5, 1, 2, 10, 20, 40 μM) were incubated in a total volume of 60 μL in buffer (50 mM Tris-HCl pH 7.4) for 5 min at room temperature. Subsequently, a buffer containing the appropriate enzyme substrate was added to a total volume of 100 μL. Using an enzyme marker, GEN CHS v1.09 software detected OD405 at 30-s intervals and recorded for 10 min to calculate enzyme kinetics."}, "[2]": {"target": "T2, FXIIa (Homo sapiens, UniProt P00748)", "T2 construct": "purchased Enzyme Research Laboratories 1212a", "T2 sequence (P00748 373-615 limits assumed)": "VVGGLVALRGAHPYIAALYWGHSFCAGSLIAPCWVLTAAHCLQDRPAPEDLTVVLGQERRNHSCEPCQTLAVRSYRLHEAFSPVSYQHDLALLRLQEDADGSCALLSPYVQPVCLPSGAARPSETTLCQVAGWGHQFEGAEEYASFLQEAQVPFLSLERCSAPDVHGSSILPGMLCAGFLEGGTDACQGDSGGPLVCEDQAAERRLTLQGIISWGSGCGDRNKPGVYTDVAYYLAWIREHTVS", "T2 sequence (P00748 20-372 partner limits assumed)": "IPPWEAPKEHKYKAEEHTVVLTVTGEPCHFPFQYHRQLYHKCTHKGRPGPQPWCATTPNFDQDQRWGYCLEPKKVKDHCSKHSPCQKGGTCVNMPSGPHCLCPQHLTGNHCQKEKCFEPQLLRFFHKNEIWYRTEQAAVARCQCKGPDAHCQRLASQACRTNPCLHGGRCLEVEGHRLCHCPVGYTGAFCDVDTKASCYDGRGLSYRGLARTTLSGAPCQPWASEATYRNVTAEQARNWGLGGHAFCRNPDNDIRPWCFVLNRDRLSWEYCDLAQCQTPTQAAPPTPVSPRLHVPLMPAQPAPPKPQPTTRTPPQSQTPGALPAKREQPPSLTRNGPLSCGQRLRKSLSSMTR", "assay": "Effect on FXIIa activity (chromogenic substrate assay; Dixon plot Ki)", "assay_type": "biochemical", "conditions": "natural poeciguamerin 0-40 μM; FXIIa 10 nM; S-2302 0.2 mM; 50 mM Tris-HCl pH 7.4; 5 min, room temperature; OD405 for 10 min", "source_text": "as §1, §2, §3"}, "[3]": {"target": "T3, kallikrein (Homo sapiens, UniProt P03952)", "T3 construct": "purchased Enzyme Research Laboratories 1303", "T3 sequence (P03952 391-638 limits assumed)": "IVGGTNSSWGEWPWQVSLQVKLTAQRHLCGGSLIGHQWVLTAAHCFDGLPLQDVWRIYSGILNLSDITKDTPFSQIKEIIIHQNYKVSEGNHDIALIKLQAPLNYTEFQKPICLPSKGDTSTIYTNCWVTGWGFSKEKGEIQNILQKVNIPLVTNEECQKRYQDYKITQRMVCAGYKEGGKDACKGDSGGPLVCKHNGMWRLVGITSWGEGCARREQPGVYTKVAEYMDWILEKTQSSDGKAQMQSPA", "T3 sequence (P03952 20-390 partner limits assumed)": "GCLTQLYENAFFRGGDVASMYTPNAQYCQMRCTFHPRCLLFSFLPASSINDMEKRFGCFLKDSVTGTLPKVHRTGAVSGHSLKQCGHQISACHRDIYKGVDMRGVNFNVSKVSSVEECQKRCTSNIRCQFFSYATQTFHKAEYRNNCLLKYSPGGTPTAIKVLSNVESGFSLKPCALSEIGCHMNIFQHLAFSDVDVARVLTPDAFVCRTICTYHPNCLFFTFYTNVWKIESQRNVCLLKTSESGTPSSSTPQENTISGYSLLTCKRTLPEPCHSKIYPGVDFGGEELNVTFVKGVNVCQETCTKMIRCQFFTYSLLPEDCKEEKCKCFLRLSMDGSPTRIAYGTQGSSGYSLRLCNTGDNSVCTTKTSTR", "assay": "Effect on kallikrein activity (chromogenic substrate assay; Dixon plot Ki)", "assay_type": "biochemical", "conditions": "natural poeciguamerin 0-40 μM; kallikrein 80 nM; S-2302 0.2 mM; 50 mM Tris-HCl pH 7.4; 5 min, room temperature; OD405 for 10 min", "source_text": "as §1, §2, §3"}, "[4]": {"tested_on": "FXa", "assay": "Effect on FXa activity (chromogenic substrate assay)", "assay_type": "biochemical", "conditions": "natural poeciguamerin 0-40 μM; FXa 20 nM; S-2222 0.2 mM; 50 mM Tris-HCl pH 7.4; 5 min, room temperature; OD405 for 10 min", "procedure": "as §2\n(§4) We mixed poeciguamerin with specific chromogenic substrates and proteases to evaluate the effect of poeciguamerin on various enzymatic activities. These enzymes and substrates included FXIIa (10 nM, 1212a, Enzyme Research Laboratories, South Bend, IN, USA; substrate: 0.2 mM, S-2302, Chromogenix, Milan, Italy), kallikrein (80 nM, 1303, Enzyme Research Laboratories, South Bend, IN, USA; substrate: 0.2 mM, S-2302, Chromogenix, Milan, Italy), trypsin (0.8 μM, T2600000, Sigma-Aldrich, St. Louis, MO, USA; substrate: 0.2 mM, S-2222, Chromogenix, Milan, Italy), thrombin (10 nM, 1002a, Enzyme Research Laboratories, South Bend, IN, USA; substrate: 0.2 mM, S-2238, Chromogenix, Milan, Italy), FXa (20 nM, 1011, Enzyme Research Laboratories, South Bend, IN, USA; substrate: 0.2 mM, S-2222, Chromogenix, Milan, Italy), elastase (0.4 μM, E8140, Sigma-Aldrich, St. Louis, MO, USA; substrate: 0.2 mM, 324696, Sigma-Aldrich, St. Louis, MO, USA), and other proteases were affected. […] Using an enzyme marker, GEN CHS v1.09 software detected OD405 at 30-s intervals and recorded for 10 min to calculate enzyme kinetics."}, "[5]": {"tested_on": "trypsin", "assay": "Effect on trypsin activity (chromogenic substrate assay)", "assay_type": "biochemical", "conditions": "natural poeciguamerin 0-40 μM; trypsin 0.8 μM; S-2222 0.2 mM; 50 mM Tris-HCl pH 7.4; 5 min, room temperature; OD405 for 10 min", "procedure": "as §2, §4"}, "[6]": {"tested_on": "thrombin", "assay": "Effect on thrombin activity (chromogenic substrate assay)", "assay_type": "biochemical", "conditions": "natural poeciguamerin 0-40 μM; thrombin 10 nM; S-2238 0.2 mM; 50 mM Tris-HCl pH 7.4; 5 min, room temperature; OD405 for 10 min", "procedure": "as §2, §4"}, "[7]": {"tested_on": "mice", "assay": "Foot-licking mouse model (elastase-induced pain)", "assay_type": "in vivo, mouse (female C57BL/6J)", "conditions": "poeciguamerin 0, 6, 12 mg/kg i.v. 10 min before 25 μL elastase (6 mg/kg) in right hind paw; phase I 0–10 min and phase II 10–30 min; n = 5 per group", "procedure": "(§5) To evaluate the biological activity of poeciguamerin, we used the foot-licking mouse model and the tail-withdrawal mouse model. In the foot-licking mouse model, we placed the mice in a hot plate apparatus at a temperature of 55 ± 0.5 °C. The pain thresholds of the mice were measured twice every 15 min and hind paw licking was used as the observation parameter. Female mice showing a pain response within 10–30 s were selected and randomly divided into four groups. In the control group, 25 μL elastase (6 mg/kg) was injected into the base of the right hind paw, while in the experimental group, poeciguamerin (0, 6, 12 mg/kg) was injected intravenously 10 min before the elastase injection. […] The cumulative number of foot licks during the first phase (0–10 min) (Figure 5A) and the second phase (10–30 min) (Figure 5B) was recorded. […] The tails of the mice were stretched in hot water at 45 °C and the time of tail flicking was recorded.\n(§6) Figure 5 Effects of poeciguamerin on elastase or hot water bath-induced pain. […] The total time mice spent licking the paw was recorded during the I phase (0–10 min) (A) and the II phase (10–30 min) (B). n = 5 per group. Data are expressed as mean ± SEM and were subjected to an unpaired t-test, *** p < 0.001. […] The tails of the mice were stretched in hot water at 45 °C and the time of the tail flick was recorded (C). n = 5 per group. […]"}, "[8]": {"tested_on": "mice", "assay": "Tail withdrawal mouse model (hot water bath)", "assay_type": "in vivo, mouse (female C57BL/6J)", "conditions": "poeciguamerin 0, 6, 12 mg/kg, tail vein; water 45 °C; maximum time 15 s; n = 5 per group", "procedure": "as §5, §6"}},
  "note": "Bridge positions count the residues as written; N and C are the ends. Ends that are not written are not given here.",
  "data": [
    {"sequence": "VDEKAEVTDDLCGDKTCSGAQVCQNDACVCSPVRCMIMCPNGFKLDENGCEYPCSCA (disulfide 12-23, 17-28, 30-50, 35-54, 39-56) [poeciguamerin]", "values": [
      {"measurement": "effect on elastase activity", "setting": "[1]; natural poeciguamerin 0-40 μM, elastase 0.4 μM, substrate 324696 0.2 mM, 50 mM Tris-HCl pH 7.4, 5 min, room temperature, OD405 for 10 min", "result": "dose-dependent inhibition"},
      {"measurement": "inhibition of elastase activity by chromatographic peak fractions", "setting": "[1]; peak fractions of P. manillensis salivary gland secretions (Sephadex G-50, RP-HPLC C8, Mono S FPLC), elastase chromogenic substrate assay", "result": "significantly inhibited elastase activity"},
      {"measurement": "effect on FXIIa activity", "setting": "[2]", "result": "slight inhibition"},
      {"measurement": "effect on kallikrein activity", "setting": "[3]", "result": "slight inhibition"},
      {"measurement": "effect on FXa activity", "setting": "[4]", "result": "no inhibitory effects"},
      {"measurement": "effect on trypsin activity", "setting": "[5]", "result": "no inhibitory effects"},
      {"measurement": "effect on thrombin activity", "setting": "[6]", "result": "no inhibitory effects"},
      {"measurement": "effect on elastase-induced pain (cumulative foot licks)", "setting": "[7]", "result": "attenuated this painful response"},
      {"measurement": "effect on hot water-induced pain response (tail withdrawal latency)", "setting": "[8]", "result": "attenuated this pain response"}
    ]}
  ]
}
